Here are results for 23 molecules from US20240002388A1, “PYRIMIDINONE COMPOUNDS AND USES THEREOF” (HUTCHISON MEDIPHARMA LIMITED, priority 2020, published 2024).

In the assay the target is RIPK1 recombination protein (Homo sapiens (Human), UniProt Q13546). Put plainly: RIPK1 kinase activity assay (ADP-Glo). Type of assay: biochemical. The conditions noted are these: RIPK1 kinase activity, ADP-Glo, 10 μM ATP. The protocol:
RIPK1 recombination protein: synthesized by Shanghai Medicilon Inc. under the commission by Hutchison MediPharma Limited (50 g of cell pellet was resuspended in 250 mL of lysis buffer (50 mM Tris, pH 7.5, 250 mM NaCl, 1 mM DTT, protease inhibitor 1:50), the cells were ultrasonically lysed using a sonicator (the power set to 4) on ice for 3×30 minutes; then centrifugation was carried out at 4° C., at 15,000 g for 30 minutes to clarify the suspension, the soluble pellet was resuspended into 10 mL of glutathione agarose, and incubated at 4° C. for 2 hours; then the beads were loaded into the column and washed with lysis buffer (no protease inhibitors) to baseline, and eluted with 20 mM of reduced glutathione (50 mM Tris, pH 8). The fractions identified by SDS-PAGE as containing the protein of interest were collected (10 mL of total volume), concentrated to about 5 mL and loaded into 300 mL superdex75 column (GE Healthcare) equilibrated with buffer (50 mM Tris, pH 7.5, 150 mM NaCl, 1 mM DTT, 10% glycerol, pH 7.5). RIP1 protein was eluted as a dimer from the superdex75 column. The protein concentration was determined by the Bradford assay using BSA as the standard. The yield was 12.5 mg at 0.63 mg/mL. The protein was aliquoted and frozen at −80° C. for later use.
ADP-Glo Kinase kit can be used to measure ADP level in kinase activity assay so as to distinguish the inhibitory effects of different compounds on RIPK1 kinase activity. The ADP-Glo assay was usually divided into three steps. Firstly, the kinase converted ATP to ADP and phosphorylated the substrate at the same time; secondly, ATP digestion reagent was added to degrade all ATP in the reaction system; finally, a detection reagent was added to reduce ADP to ATP, and energy from ATP was transferred to […] which thus emitting a chemical luminescence that can be detected. Assay procedure can refer to manufacture's technical manual.
(2) Reagent Preparation: • 1.33× kinase buffer: 5× kinase buffer stock (250 mM of NaCl, 150 mM of MgCl2, 2.5 mg/ml BSA (bovine serum albumin), 0.1% CHAPS (3-[(3-cholamidopropyl)-dimethyl-ammonio]-1-propane sulfonate), and 5 mM of dithiothreitol) was diluted with water to 1.33× kinase buffer; • RIPK1 enzyme solution: the kinase was dissolved in 1.33× kinase buffer to make 40 nM as the final working concentration; • ATP solution: 10 mM ATP stock solution in water was dissolved in 1.33× kinase buffer to make 10 μM as the final working concentration; • 4× compound preparation: the compound was diluted in a 3-fold gradient, and finally 4% DMSO aqueous solution containing different concentrations of the compound was obtained. The final concentrations of the test compound were 10, 3.33, 1.11, 0.37, 0.12, 0.04, 0.014, and 0.005 μM.
The assay set up two control groups, one was 100% inhibition group (no enzyme treatment), another was 0% inhibition group (no inhibitor treatment), each control group contained 8 replicate wells. 2.5 μl of serially diluted compound was added to each well of a 384-well plate, with double replicate wells, and 4% DMSO solution was added to control wells. Then 5 μl of RIPK1 enzyme solution was added to each well except 100% inhibition control, 5 ul of buffer was added to 100% inhibition control, after that, 2.5 μl of ATP solution was added to all wells, the plate was vibrated at 1000 rpm for 30 seconds to perform transient centrifuge; finally the 384-well assay plate was put in the shaking incubator, and incubated at room temperature for 3 hours. After the enzymatic reaction was completed, 5 μl of ATP depletion reagent was added to each well, the mixture was centrifuged transiently, then the 384-well assay plate was put in the shaking incubator, and incubated at room temperature for 1 hour. 5 μl of ADP detection reagent was added to each well, and the mixture was centrifuged transiently, and incubated at room temperature for 0.5 hour. […]

SMILES strings stand for the structures.

RIPK1 recombination protein, sequence (Q13546 other isoform, or with tags, fused parts or gaps): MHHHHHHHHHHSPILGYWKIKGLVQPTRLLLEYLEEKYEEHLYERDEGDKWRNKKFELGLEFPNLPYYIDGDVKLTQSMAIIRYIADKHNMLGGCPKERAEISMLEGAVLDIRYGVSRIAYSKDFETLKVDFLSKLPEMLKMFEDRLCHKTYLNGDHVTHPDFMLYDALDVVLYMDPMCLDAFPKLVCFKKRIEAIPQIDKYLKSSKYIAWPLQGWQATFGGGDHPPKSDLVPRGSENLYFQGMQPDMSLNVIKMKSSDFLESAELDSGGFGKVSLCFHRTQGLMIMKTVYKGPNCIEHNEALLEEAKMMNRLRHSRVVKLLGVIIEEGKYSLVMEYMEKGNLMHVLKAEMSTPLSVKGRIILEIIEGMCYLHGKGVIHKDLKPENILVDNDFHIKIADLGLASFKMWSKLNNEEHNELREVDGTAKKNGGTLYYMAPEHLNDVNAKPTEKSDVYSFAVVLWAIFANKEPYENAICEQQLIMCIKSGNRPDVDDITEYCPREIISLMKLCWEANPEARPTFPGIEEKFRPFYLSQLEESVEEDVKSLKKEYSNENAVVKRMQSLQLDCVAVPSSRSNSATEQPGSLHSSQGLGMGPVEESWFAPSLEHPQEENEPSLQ

Turning to `CC(C)n1ncc2cnc(C(=O)NC3(c4ccc(-c5cncn([C@H](C)C(F)(F)F)c5=O)cc4)CC3)nc21` [Compound 39], the IC50 stood at 59 nM.
For the molecule `CC(C)n1ncc2cnc(C(=O)NC3(c4ccc(-c5cncn([C@@H](C)C(F)(F)F)c5=O)cc4)CC3)nc21` [Compound 40], the IC50 was found to be 52 nM.
Turning to `CC(C)n1ncc2cnc(C(=O)NC3(c4ccc(-c5cncn(C6COC6)c5=O)cc4)CC3)nc21` [Compound 41], the IC50 was 61 nM.
As for `CC(C)n1ncc2cnc(C(=O)NC3(c4ccc(-c5cncn(C6CCC6)c5=O)cc4)CC3)nc21` [Compound 42], the figure is 56 nM; as for `CC[C@H](C)n1cncc(-c2ccc(C3(NC(=O)c4ncc5cnn(C(C)C)c5n4)CC3)cc2)c1=O` [Compound 43], 32 nM; as for `CC[C@@H](C)n1cncc(-c2ccc(C3(NC(=O)c4ncc5cnn(C(C)C)c5n4)CC3)cc2)c1=O` [Compound 44], 37 nM.
The same measure for `CC(C)Cn1cncc(-c2ccc(C3(NC(=O)c4ncc5cnn(C(C)C)c5n4)CC3)cc2)c1=O` [Compound 45]: 40 nM; for `Cn1cncc(-c2ccc(C3(NC(=O)c4nc5n(n4)[C@@H](c4ccccc4)CC5)CC3)cc2)c1=O` [Compound 54, (R)—N-(1-(4-(1-methyl-6-oxo-1,6-dihydropyrimidin-5-yl)phenyl)cyclopropyl)-5-phenyl-6,7-dihydro-5H-pyrrolo[1,2-b][1,2,4]triazole-2-carboxamide]: 27 nM; for `C[C@H](c1ccccc1)n1cnc(C(=O)NC2(c3ccc(-c4cncn(C)c4=O)cc3)CC2)n1` [Compound 55, (R)—N-(1-(4-(1-methyl-6-oxo-1,6-dihydropyrimidin-5-yl)phenyl)cyclopropyl)-1-(1-phenylethyl)-1H-1,2,4-triazole-3-carboxamide]: 23 nM.
In the case of `CC(C)n1cncc(-c2ccc(C3(NC(=O)c4ncc5cnn(C6COC6)c5n4)CC3)cc2)c1=O` [Compound 60], the IC50 was determined as 59 nM.
The same measure for `CC(C)n1cncc(-c2ccc(C3(NC(=O)c4ncc5cnn(CC6CC6)c5n4)CC3)cc2)c1=O` [Compound 61]: 14 nM; for `CC(C)n1cncc(-c2ccc(C3(NC(=O)c4ncc5cnn(CC6CCC6)c5n4)CC3)cc2)c1=O` [Compound 62]: 21 nM.
Consider `CC(C)n1cncc(-c2ccc(C3(NC(=O)c4ncc5cnn(-c6ccccn6)c5n4)CC3)cc2)c1=O` [Compound 63], for which the IC50 was 37 nM.
As for `O=C(NC1(c2ccc(-c3cncn(CC4CC4)c3=O)cc2)CC1)c1ncc2cnn(CC3CC3)c2n1` [Compound 64], the figure is 17 nM; as for `CC(C)n1ncc2cnc(C(=O)NC3(c4ccc(-c5cncn(C6CC(F)(F)C6)c5=O)cc4)CC3)nc21` [Compound 65], 36 nM.
For `CC(C)n1ncc2cnc(C(=O)NC3(c4ccc(-c5cncn(CC6CCC6)c5=O)cc4)CC3)nc21` [Compound 66], the IC50 was found to be 48 nM.
The same measure for `CC(C)n1ncc2cnc(C(=O)NC3(c4ccc(-c5cncn([C@H]6C[C@@H]6F)c5=O)cc4)CC3)nc21` [Compound 67]: 49 nM; for `C[C@H](n1cncc(-c2ccc(C3(NC(=O)c4ncc5cnn(CC6CC6)c5n4)CC3)cc2)c1=O)C(F)(F)F` [Compound 68]: 43 nM.
As for `CC(C)n1ncc2cnc(C(=O)NC3(c4ccc(-c5cncn([C@@H]6C[C@@H]6F)c5=O)cc4)CC3)nc21` [Compound 69], the figure is 21 nM.
As for `C[C@@H](n1cncc(-c2ccc(C3(NC(=O)c4ncc5cnn(CC6CC6)c5n4)CC3)cc2)c1=O)C(F)(F)F` [Compound 70], the figure is 51 nM; as for `C[C@H](n1cncc(-c2ccc(C3(NC(=O)c4ncc5cnn(CC6CC6)c5n4)CC3)c(F)c2)c1=O)C(F)(F)F` [Compound 71], 110 nM; as for `CC(C)n1cncc(-c2ccc(C3(NC(=O)c4ncc5cnn(CC6CC6)c5n4)CC3)c(F)c2)c1=O` [Compound 72], 65 nM.
With `CC(C)n1cncc(-c2ccc(C3(NC(=O)c4ncc5cnn(CC6CC6)c5n4)CC3)cc2F)c1=O` [Compound 73], the IC50 amounted to 52 nM.
